Source: patent US10130637B2, “Inhibition of histone methyltransferase for cardiac reprogramming” (Duke University, priority 2012, dated 2018)
Structures can show the parent of a compound that is named as a salt.

Key:
[1] = test system: Human fibroblasts (BJ cells); test: cardiac marker gene expression by qPCR in miRNA-transfected human fibroblasts with JAK inhibitor; type: cell-based; conditions: 1 μM, compared to cells transfected with the miRNAs alone
Method: Gene expression was determined by qPCR. (A) Isl-1 gene expression. (B) […] gene expression. (C) Tbx5 gene expression. (D) Mef2c gene expression. (E) Gata-4 gene expression.
RNA was harvested and prepared according to standard protocols for qPCR gene expression analysis. The expression of cardiac marker genes, such as Isl1, Mesp1, Tbx5, Mef2c, Gata4, and Hand2 was assessed.

[2] = test system: Neonatal cardiac fibroblasts; test: cardiac marker gene expression by qPCR in neonatal cardiac fibroblasts treated with HMT inhibitors, no microRNA; type: cell-based, mouse; conditions: 1 μM, after 3 days, absence of microRNA combination (FIG. 9A)
Method: Neonatal cardiac fibroblasts were treated with 1 μM of the H3K9me3 inhibitor BIX-01294 (BIX) or 1 μM of the H3K27me3/H4K20me3 inhibitor 3-Deazaneplanocin A hydrochloride (DZNep) from day 1 to day 3 in the absence (A) or presence of microRNA combination (MC) (B). Gene expression of cardiac markers was assessed by qPCR. Data are shown as Avg+Sdv. *P<0.05.
Inhibition of histone methyltransferase activity by small molecule compounds was investigated. Neonatal cardiac fibroblasts were treated with 1 μM of the H3K9 methylation inhibitor BIX-01294 or 1 μM of the H3K27/H4K20 methylation inhibitor 3-Deazaneplanocin A hydrochloride (DZNep). After 3 days, RNA was harvested using standard protocols known in the art, and cardiac gene expression was assessed by qPCR. The cardiac genes tested were Tbx5, Mef2C, Gata4, and Nkx2.5. […] Alternatively, inhibition of H3K9 causes upregulation of other cardiac markers, such asTbx5, and therefore inhibition of H3K9 methylation also promotes the expression of at least one cardiac marker.

[3] = test system: lysine 9 of histone H3 (H3K9); conditions: has been shown; cited from earlier work
G9a-like protein = molecular target: T1, G9a-like protein (Homo sapiens, UniProt Q9H9B1); conditions: reported activity; cited from earlier work
T1 sequence (Q9H9B1 1-1298): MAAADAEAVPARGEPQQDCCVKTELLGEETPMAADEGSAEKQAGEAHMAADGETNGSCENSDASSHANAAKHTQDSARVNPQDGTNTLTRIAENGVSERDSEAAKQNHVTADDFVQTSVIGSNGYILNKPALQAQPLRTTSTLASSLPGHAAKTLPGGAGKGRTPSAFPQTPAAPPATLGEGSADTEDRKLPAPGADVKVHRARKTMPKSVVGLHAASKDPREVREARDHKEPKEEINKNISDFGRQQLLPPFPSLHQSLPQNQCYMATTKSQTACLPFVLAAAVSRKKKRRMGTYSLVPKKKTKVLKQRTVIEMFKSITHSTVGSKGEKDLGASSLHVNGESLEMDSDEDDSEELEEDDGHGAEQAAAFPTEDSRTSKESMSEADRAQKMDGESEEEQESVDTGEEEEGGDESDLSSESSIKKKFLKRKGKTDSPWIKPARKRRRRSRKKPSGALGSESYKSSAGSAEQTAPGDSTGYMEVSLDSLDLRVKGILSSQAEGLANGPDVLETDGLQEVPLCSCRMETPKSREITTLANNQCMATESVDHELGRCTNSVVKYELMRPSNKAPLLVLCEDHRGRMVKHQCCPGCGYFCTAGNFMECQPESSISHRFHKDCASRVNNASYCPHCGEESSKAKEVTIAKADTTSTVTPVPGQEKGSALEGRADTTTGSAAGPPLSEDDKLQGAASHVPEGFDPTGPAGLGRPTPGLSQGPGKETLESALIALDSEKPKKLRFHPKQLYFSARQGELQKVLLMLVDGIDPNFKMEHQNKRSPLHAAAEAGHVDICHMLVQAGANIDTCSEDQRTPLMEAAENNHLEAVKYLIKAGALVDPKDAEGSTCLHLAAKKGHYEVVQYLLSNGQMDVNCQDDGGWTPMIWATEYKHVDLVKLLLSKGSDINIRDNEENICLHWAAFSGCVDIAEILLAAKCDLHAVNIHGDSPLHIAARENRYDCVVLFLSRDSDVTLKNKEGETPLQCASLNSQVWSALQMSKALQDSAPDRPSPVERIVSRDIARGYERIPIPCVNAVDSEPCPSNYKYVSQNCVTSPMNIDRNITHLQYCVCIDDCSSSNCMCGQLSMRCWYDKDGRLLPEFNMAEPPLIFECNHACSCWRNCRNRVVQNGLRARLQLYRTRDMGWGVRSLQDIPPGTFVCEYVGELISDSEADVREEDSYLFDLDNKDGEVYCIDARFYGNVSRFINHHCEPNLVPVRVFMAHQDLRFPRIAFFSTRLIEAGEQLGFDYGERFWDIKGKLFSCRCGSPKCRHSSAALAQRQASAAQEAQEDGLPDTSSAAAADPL

[4] = molecular target: T2, G9a histone lysine methyltransferase (Homo sapiens, UniProt Q96KQ7); conditions: reported activity; cited from earlier work
T2 sequence (Q96KQ7 1-1210): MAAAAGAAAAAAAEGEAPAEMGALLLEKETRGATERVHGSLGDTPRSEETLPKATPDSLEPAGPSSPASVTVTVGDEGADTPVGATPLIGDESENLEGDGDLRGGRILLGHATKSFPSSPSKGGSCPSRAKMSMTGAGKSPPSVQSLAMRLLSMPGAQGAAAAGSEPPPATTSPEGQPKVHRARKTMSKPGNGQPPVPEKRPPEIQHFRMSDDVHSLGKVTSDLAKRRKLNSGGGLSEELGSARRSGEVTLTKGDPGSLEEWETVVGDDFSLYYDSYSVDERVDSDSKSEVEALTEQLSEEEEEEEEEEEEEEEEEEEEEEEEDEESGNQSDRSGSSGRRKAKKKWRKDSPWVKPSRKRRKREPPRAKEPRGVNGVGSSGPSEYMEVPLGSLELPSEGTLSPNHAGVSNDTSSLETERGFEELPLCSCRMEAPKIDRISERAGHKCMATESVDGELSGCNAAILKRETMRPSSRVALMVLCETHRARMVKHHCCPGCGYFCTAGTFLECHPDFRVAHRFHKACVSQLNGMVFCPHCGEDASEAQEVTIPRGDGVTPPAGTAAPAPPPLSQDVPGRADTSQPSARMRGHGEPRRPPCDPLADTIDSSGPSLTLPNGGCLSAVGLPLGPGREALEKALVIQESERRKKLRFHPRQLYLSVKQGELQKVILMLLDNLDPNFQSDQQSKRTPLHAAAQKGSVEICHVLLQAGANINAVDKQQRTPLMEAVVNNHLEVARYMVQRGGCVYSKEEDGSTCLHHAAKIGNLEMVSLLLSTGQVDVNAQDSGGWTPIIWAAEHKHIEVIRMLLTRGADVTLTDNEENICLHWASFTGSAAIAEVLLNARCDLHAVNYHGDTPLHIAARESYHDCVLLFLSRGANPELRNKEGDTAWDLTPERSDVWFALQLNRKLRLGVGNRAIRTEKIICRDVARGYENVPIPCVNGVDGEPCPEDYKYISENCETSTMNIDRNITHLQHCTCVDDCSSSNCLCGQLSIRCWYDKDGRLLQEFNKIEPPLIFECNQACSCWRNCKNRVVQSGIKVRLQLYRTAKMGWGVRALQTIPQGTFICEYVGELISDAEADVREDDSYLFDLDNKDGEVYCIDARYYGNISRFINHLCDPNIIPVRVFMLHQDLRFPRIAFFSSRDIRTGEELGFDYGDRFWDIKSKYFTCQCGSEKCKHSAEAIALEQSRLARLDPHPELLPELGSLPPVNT

Row | Structure (SMILES) | expression of cardiac markers (Isl1, Mesp1, Tbx5, Mef2c, Gata4, Hand2) [1] | Mef2C cardiac marker gene expression [2] | Nkx2.5 cardiac marker gene expression [2] | Tbx5 cardiac marker gene expression [2] | methylation at lysine 9 of histone H3 (H3K9) [3] | activity on G9a-like protein (G9a-like protein) | activity on G9a histone lysine methyltransferase [4]
1 | CC(C)(C)c1nc2c3ccc(F)cc3c3c(=O)[nH]ccc3c2[nH]1 [JAK inhibitor I, 2-(1,1-Dimethylethyl)-9-fluoro-3,6-dihydro-7H-benz[h]-imidaz[4,5-f]isoquinolin-7-one] | increases |  |  |  |  |  | 
2 | COc1cc2nc(N3CCCN(C)CC3)nc(NC3CCN(Cc4ccccc4)CC3)c2cc1OC [BIX-01294, 2-(Hexahydro-4-methyl-1H-1,4-diazepin-1-yl)-6,7-dimethoxy-N-[1-(phenylmethyl)-4-piperidinyl]-4-quinazolinamine trihydrochloride] |  | significant downregulation | significant downregulation | upregulation | inhibit | inhibition | inhibition
